In patent US12584915B2, “Glyphosate biosensor” (priority 2019, dated 2026):
Read-outs that look alike come from different tables or passages of the source.

What was measured:
[1] = test system: PND177NΔ (SEQ ID NO: 2); assay: biochemical; type: binding, E. coli; conditions: PhnD-E177NΔ sensor vs wild type
Source text: (§1) To determine the Kd values, the ratio of fluorescence between two wavelengths (570 nm/450 nm) was monitored as a function of increasing ligand concentrations (FIGS. 2 and 3). The titration data were fit to a single binding isotherm equation (eq. 1), where R is defined as the fluorescence ratio at a given ligand concentration [L], R0 is the fluorescence ratio in the absence of ligand and Rmax is the fluorescence ratio at saturating ligand concentrations.
(§2) Fluorescent screening and data Analysis. All fluorescence measurements were collected on a SpectraM2 fluorescence spectrometer at 22° C. Acrylodan excitation was set-up at 359 nm and an emission sweep was collected between 400-600 nm. Coumarin conjugated PhnD was excited at 419 nm and an emission spectrum was collected between 430-520 nm. Titrations were performed by increasing concentration of ligand and monitoring the changes in fluorescence intensity at 465 nm for coumarin conjugates or the ratio of fluorescence at 570 nm/450 nm. Error bars represent the standard deviation from three individual titrations. The fluorescence intensity at each wavelength was measured three times for each ligand concentration and the average of the reading was calculated. The ratio of the two averages from each of the three titrations was used to calculate the standard deviation. Kd values were determined by fitting the titration data to the following single binding isotherm equation using Kaleidagraph, where F is the observed fluorescence at a certain ligand concentration [L], Fo is the fluorescence in the absence of ligand, and Fmax is the fluorescence at saturating ligand concentrations.

[2] = target: T1, PND177NΔ (SEQ ID NO: 2) (Escherichia coli, UniProt P16682, E203N/N152C); assay: biochemical; type: binding, E. coli; conditions: for affinity of the sensor for the ligand, in words: PhnD-E177NΔ sensor
T1 construct: made in house; host or cells: E. coli BL21 DE3
Source text: as §1, §2

[3] = target: T2, WT (SEQ ID NO: 5) EcPhnD (Escherichia coli, UniProt P16682, N152C); assay: biochemical; type: binding, E. coli
T2 construct: made in house; host or cells: E. coli BL21 DE3
Method: as §2

[4] = target: EcPhnD (Escherichia coli, UniProt P16682); conditions: cited from earlier work
[5] = Fluorescence titration of acrylodan-labelled PhnD variants with glyphosate; type: binding
Source text: The fluorescent reporter group attached to PhnD changes its emission properties in response to glyphosate binding which can be observed using fluorescent spectroscopy. This allows detection of a ligand (in this case glyphosate), where fluorescence emission can be used to determine the concentration of glyphosate in solution. Two main types of data were collected, Apo vs Saturated spectra showing fluorescence emission with and without glyphosate (not shown), and the other type was titrations done with increasing glyphosate concentrations to determine the Kd value for each mutant for glyphosate.
The purified, fluorescently-labeled mutants were tested for their ability to bind to glyphosate. Kd values were determined by monitoring the changes in fluorescence as a function of increasing ligand concentrations. Table 1 provides dissociation constants (Kd values) of different PhnD variants for glyphosate. All mutants contain a cysteine at position 126 for attachment of acrylodan. Values were obtained by monitoring fluorescence change as a function of ligand concentration using eq. 1.
as §1, with “Importantly, the change in fluorescence associated with ligand binding is ratiometric with a larger decrease in emission at lower wavelengths. To” for “To”
Fluorescent screening and data Analysis. All fluorescence measurements were collected on a SpectraM2 fluorescence spectrometer at 22° C. […] Titrations were performed by increasing concentration of ligand and monitoring the changes in fluorescence intensity at 465 nm for coumarin conjugates or the ratio of fluorescence at 570 nm/450 nm. […]

[6] = PND177NΔ (SEQ ID NO: 2), acrylodan, ratio 570 nm/450 nm, read-out: PND177NΔ Kd
[7] = WT (SEQ ID NO: 5), read-out: WT Kd

T2 sequence (P16682 27-338 N152C): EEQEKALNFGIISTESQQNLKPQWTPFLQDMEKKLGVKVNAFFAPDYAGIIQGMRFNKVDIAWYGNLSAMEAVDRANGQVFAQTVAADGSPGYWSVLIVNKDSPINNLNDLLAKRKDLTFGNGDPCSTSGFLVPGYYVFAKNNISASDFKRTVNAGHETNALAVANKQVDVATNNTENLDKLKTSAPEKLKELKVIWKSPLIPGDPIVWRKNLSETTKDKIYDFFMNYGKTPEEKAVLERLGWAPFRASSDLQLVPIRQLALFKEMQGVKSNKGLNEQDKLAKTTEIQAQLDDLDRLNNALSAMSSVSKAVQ
EcPhnD, sequence (P16682 27-338): as the sequence (P16682 27-338 N152C) above, with C126N counted along it

**Q.** With `NCCP(=O)(O)O` [2-Aminoethyl Phosphate (2-AEP), 2-Aminoethyl Phosphonate] as the molecule, how does the “reduction of affinity compared to the wild-type protein” value [1] read?
**A.** The value was “more than 3 orders of magnitude”.

**Q.** What about the Kd [2, 6] of the same molecule?
**A.** Its Kd is 5.61 µM.

**Q.** What about the Kd [3, 7] of the same molecule?
**A.** Its Kd is 0.002 µM.

**Q.** And the Kd ([4]; natural ligand, background statement, read-out: Kd of PhnD for 2-AEP)?
**A.** Its Kd is about 0.005 µM.

**Q.** Which Kd [2] does the source give for `O=C(O)CNCP(=O)(O)O` [Glyphosate] here?
**A.** Its Kd is 4.29 µM.

**Q.** What about the Kd [3] of the same molecule?
**A.** The Kd was 650 µM.

**Q.** What about the Kd ([4]; previous research, read-out: Kd of EcPhnD for glyphosate) of the same molecule?
**A.** The Kd was about 650 µM.

**Q.** What does the source list for Arsenate?
**A.** Kd [2, 6]: 10.7 µM; affinity of the sensor for the ligand, in words [2]: moderate affinities; Kd [3, 7]: 230 µM

**Q.** Which Kd [2, 6] does the source give for Phosphate here?
**A.** The Kd was 26.1 µM.

**Q.** And the “affinity of the sensor for the ligand, in words” value [2]?
**A.** The value was “moderate affinities”.

**Q.** What about the Kd [3, 7] of the same molecule?
**A.** The Kd was 260 µM.

B1: E177N (protein)
chain: EEQEKALNFGIISTESQQNLKPQWTPFLQDMEKKLGVKVNAFFAPDYAGIIQGMRFNKVDIAWYGNLSAMEAVDRANGQVFAQTVAADGSPGYWSVLIVNKDSPINNLNDLLAKRKDLTFGNGDPCSTSGFLVPGYYVFAKNNISASDFKRTVNAGHETNALAVANKQVDVATNNTNNLDKLKTSAPEKLKELKVIWKSPLIPGDPIVWRKNLSETTKDKIYDFFMNYGKTPEEKAVLERLGWAPFRASSDLQLVPIRQLALFKEMQGVKSNKGLNEQDKLAKTTEIQAQLDDLDRLNNALSAMSSVSKAVQ
**Q.** For B1, which “fold increase in affinity for glyphosate over the wild-type protein” value [5] is on record?
**A.** Its value is 80 fold.

B2: E177NΔ (protein)
chain: EEQEKALNFGIISTESQQNLKPQWTPFLQDMEKKLGVKVNAFFAPDYAGIIQGMRFNKVDIAWYGNLSAMEAVDRANGQVFAQTVAADGSPGYWSVLIVNKDSPINNLNDLLAKRKDLTFGNGDPCSTSGFLVPGYYVFAKNNISASDFKRTVNAGHETNALAVANKQVDVATNNTNNLDKLKTSAPEKLKELKVIWKSPLIPGSPIVWRKNLSETTKDKIYDFFMNYGKTPEEKAVLERLGWAPFRASSDLQLVPIRQLALFKEMQGVKSNKGLNEQDKLAKTTEIQAQLDDLDRLNNALSA
**Q.** Which “fold increase in affinity for glyphosate over the wild-type protein” value [5] does the source give for B2 here?
**A.** The value was “over 150 fold”.

**Q.** And the “fluorescence change associated with glyphosate binding” value ([5]; saturating glyphosate (FIG. 6))?
**A.** The value was “large decrease in fluorescence”.
